From patent US20150202212A1, “METHODS FOR IDENTIFYING AGENTS FOR TREATING SMOOTH MUSCLE DISORDERS AND COMPOSITIONS THEREOF” (University of Massachusetts Medical School, priority 2012, published 2015)
Read-outs that look alike come from different tables or passages of the source.

Tests used:
mouse urethra = experiment: Mouse urethral contraction induced by contractile agonists; conditions: pretreatment; Chloro 1 mM; CDCA 100 μM
Excerpt: […] were pretreated with bitter tastants, and then stimulated with contractile agonists. Contractile agonists alone were used as the control.

L-type VDCCs = conditions: chloroquine 1 mM; for inhibition of L-type Ca2+ channel currents: Ba2+ as charge carrier
[1] = test system: human airway smooth muscle; experiment: Measurement of cell shortening in human ASM cells; assay type: cell-based; conditions: chloroquine after Mch
Method: Human lung tissue was obtained (with informed consent) from patients undergoing surgery (lobectomy) for lung cancer at the Department of Surgery and the Department of Pathology at the Univ. of Massachusetts Memorial Med Ctr (Worcester, Mass.). The tumors were identified as nonsmall cell carcinoma (adenocarcinoma, squamous cell carcinoma). Intrapulmonary airways were dissected out and cleaned free of the connective tissues. These airways were either cut into the rings ([…]) for force measurements the same as for mouse airway tissues, or digested with the same enzymes, dissociation medium and isolation procedure as for single mouse ASM cells.
Myocytes were placed into a recording chamber superfused with the bath solution for patch clamp experiments at room temperature. Cells loaded with Fluo-3 were imaged using a custom-built wide-field digital imaging system and their lengths were determined using custom software to manually trace down the center of the cell.

Mouse ASM cells = experiment: Measurement of Ca2+ sparks / local Ca2+ events in mouse ASM cells
mouse airway strips = conditions: all at 1 mM; [Ca2+]i clamped; α-toxin permeabilized
[2] = test system: isolated smooth muscle cells from mouse internal anal sphincter; experiment: [Ca2+]i in isolated smooth muscle cells from mouse internal anal sphincter; assay type: cell-based; conditions: CDCA 100 μM; chloroquine 1 mM; denatonium 1 mM
Excerpt: Fluorescence images using fluo-3 as a calcium indicator were obtained using a custom-built wide-field digital imaging system. The camera was interfaced to a custom made inverted microscope, and the cells were imaged using either a 20× Nikon 1.3 NA for global [Ca^2+] measurement or a 60× Nikon 1.4 NA oil for Ca^2+ spark measurement. The 488 nm line of an Argon Ion laser provided fluorescence excitation, with a shutter to control exposure duration, and emission of the Ca^2+ indicator was monitored at wavelengths >500 nm. The images were acquired at the speed of either 1 Hz for global [Ca^2+] measurement or 50 Hz for Ca^2+ spark measurement. Subsequent image processing and analysis was performed off line using a custom-designed software package, running on a Linux/PC workstation. [Ca^2+]i was represented as ΔF/F0*100 with F calculated by integrating fluo-3 over entire cells for global [Ca^2+], or just the value at the brightest pixel (i.e., epicenter pixel) for Ca^2+ sparks.

Compound: CCN(CC)CCCC(C)Nc1ccnc2cc(Cl)ccc12 (centres unmarked) [chloroquine]
- effect on 60 mM KCl-induced contraction (mouse urethra): blocked
- effect on alpha1-agonist phenylephrine-induced contraction (mouse urethra): inhibited
- time to full inhibition of L-type Ca2+ channel currents (L-type VDCCs): ≤ 2 min
- inhibition of L-type Ca2+ channel currents (L-type VDCCs): fully inhibited
- inhibition of L-type Ca2+ channel currents (L-type VDCCs; listed as Chloro): blocked
- cell length, % of the control length [1]: 94±5%
- Ca2+ spark frequency (Mouse ASM cells; chloroquine 10 μM for 2 mins, 13 cells without global rise, control 2.13±0.24): 1.62±0.21 Hz
- Ca2+ spark amplitude (ΔF/F0 at the brightest location) (Mouse ASM cells; chloroquine 10 μM for 2 mins, n=13, control 20.6±1.69): 18.1±1.3
- local Ca2+ events (Ca2+ puffs or sparks) (Mouse ASM cells; chloroquine 10 μM, cells pretreated with 100 μM ryanodine, 14 cells): no detectable local Ca^2+ events
- relaxation of ASM at fixed [Ca2+]i (mouse airway strips): failed to relax
- effect on the increase in [Ca2+]i induced by 60 mM KCl [2]: fully reversed
